{
  "source": "patent US9062050B2",
  "about": "“Inhibitor of JAK1 and JAK2” (Eli Lilly and Company, priority 2012, dated 2015)",
  "key": {"phosphorylation of STAT3": {"system": "phosphorylation of STAT3", "assay": "Mia-Paca2-MSD-pSTAT3 cell-based assay", "settings": "Homo sapiens, MIA PaCa-2; Mia-paca2 pancreatic cancer cells, stimulated with conditioned medium; read-out: IC50, inhibits the phosphorylation of STAT3", "method": "The Mia-Paca2-MSD (MesoScale Diagnostics)-pSTAT3 cell-based assay is used to examine the potency of compounds at blocking STAT3 phosphorylation in pancreatic cancer cells. Mia-paca2 cells (ATCC) are grown in DMEM complete medium supplemented with 10% FBS at 37° C. in incubator with 5% CO2. Cells are then collected, counted, plated at 4×10^4 cells/well in 96-well plates, and cultured for overnight at 37° C. with 5% CO2. Culture medium is removed from the cells and replaced with serum-free medium containing either vehicle alone (DMSO) or 2× final concentrations of compounds across a range from 0-20 μM at 1:3 dilution (10 dilutions). […] After stimulation, all medium is manually removed as above and cells are lysed in 50 microliters of ice cold 1×MSD lysis buffer (MesoScale Diagnostics, K150DID-2) containing 1×HALT protease and phosphatase inhibitor cocktail ((Thermo Scientific, 78441). The 96-well plates are sealed and then mixed for 2 minutes on an orbital shaker at room temperature, and then immediately frozen at −80° C. overnight. pSTAT3 is detected with the use of the MA6000 MSD Whole Cell Lysate Kit for Phospho-STAT-3 (Tyr 705) (MesoScale Diagnostics, #K150DID-2) as following, plates were blocked with blocking buffer at room temperature for 1-2 hours with shaking, and then washed 4× with washing buffer. […]"}, "JAK2": {"biological_target": "JAK2 (Homo sapiens, UniProt O60674)", "sequence (O60674 whole entry)": "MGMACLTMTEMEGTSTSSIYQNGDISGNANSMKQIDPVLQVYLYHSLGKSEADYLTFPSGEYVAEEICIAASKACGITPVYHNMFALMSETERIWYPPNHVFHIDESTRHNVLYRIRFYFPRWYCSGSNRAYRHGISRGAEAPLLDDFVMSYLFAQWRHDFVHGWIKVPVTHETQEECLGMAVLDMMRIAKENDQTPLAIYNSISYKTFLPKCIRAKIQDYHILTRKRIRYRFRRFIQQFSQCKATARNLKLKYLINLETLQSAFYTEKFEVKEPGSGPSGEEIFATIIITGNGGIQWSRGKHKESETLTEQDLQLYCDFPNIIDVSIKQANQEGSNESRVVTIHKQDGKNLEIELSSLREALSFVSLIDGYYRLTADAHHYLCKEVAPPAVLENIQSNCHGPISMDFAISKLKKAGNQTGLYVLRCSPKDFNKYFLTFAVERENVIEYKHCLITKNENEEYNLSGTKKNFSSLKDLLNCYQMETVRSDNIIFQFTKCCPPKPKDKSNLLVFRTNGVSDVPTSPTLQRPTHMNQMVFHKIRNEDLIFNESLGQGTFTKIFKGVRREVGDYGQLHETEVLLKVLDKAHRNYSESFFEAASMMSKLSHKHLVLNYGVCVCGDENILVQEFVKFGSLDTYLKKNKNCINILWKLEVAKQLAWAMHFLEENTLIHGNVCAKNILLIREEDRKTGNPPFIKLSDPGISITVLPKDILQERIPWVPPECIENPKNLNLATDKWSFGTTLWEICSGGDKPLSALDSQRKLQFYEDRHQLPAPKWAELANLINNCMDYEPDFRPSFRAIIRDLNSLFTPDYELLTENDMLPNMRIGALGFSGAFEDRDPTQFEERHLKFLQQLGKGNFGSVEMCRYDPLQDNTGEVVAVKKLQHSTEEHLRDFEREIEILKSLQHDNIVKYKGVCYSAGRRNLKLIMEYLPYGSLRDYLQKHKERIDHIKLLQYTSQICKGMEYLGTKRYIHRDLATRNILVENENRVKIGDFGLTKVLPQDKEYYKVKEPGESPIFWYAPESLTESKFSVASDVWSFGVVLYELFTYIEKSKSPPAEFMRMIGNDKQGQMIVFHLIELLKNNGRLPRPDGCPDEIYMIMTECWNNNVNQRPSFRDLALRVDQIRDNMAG", "assay": "JAK LanthaScreen Kinase Assay (TR-FRET), JAK2", "type": "biochemical", "parameters": "purchased Life Technologies #PV4844", "settings": "enzyme assay, 5 micromolar ATP, n=1; read-out: IC50 against JAK2", "from_the_text": "(§1) The JAK LanthaScreen™ Kinase Assay (Life Technologies, #PV4844) is used to determine compound IC50 values against the JAK1, JAK2, and JAK3 kinases. This kinase assay is a Time Resolved Fluorescence Resonance Energy Transfer (TR-FRET) assay format that uses long-lifetime terbium (Tb) labeled antibody as the donor species and Green Fluorescent Protein-Signal Transducers and Activators of Transcription (GFP-STAT1) as the acceptor species.\n(§2) The TR-FRET ratio is used to monitor JAK1, JAK2, or JAK3 activity where an increase in phosphorylation of the GFP-STAT1 results in an increase in the TR-FRET ratio. Perform the kinase reaction using a 12.5 microliter reaction volume in shallow black 384-well Proxiplate (PerkinElmer, #6008260). […] Incubate at room temperature for 90 minutes, and read in an EnVision plate reader (PerkinElmer, #2104-0010) with 340 nm wavelength excitation filter and emission filters of 520 nm and 495 nm wavelengths. The ratio is derived from the emission wavelength for the GFP-STAT1 which is measured at 520 nanometer versus the emission at 495 nanometer for the Tb-anti-pSTAT1[pTyr701]. Derive the IC50 value for the compound using percent inhibition data, which is calculated from the reaction data relative to on-plate controls (active enzyme versus 2.0 micromolar control-inhibited enzyme). […]"}, "JAK1": {"biological_target": "T1, JAK1 (Homo sapiens, UniProt P23458)", "T1 construct": "purchased Life Technologies #PV4844", "T1 sequence (P23458 whole entry)": "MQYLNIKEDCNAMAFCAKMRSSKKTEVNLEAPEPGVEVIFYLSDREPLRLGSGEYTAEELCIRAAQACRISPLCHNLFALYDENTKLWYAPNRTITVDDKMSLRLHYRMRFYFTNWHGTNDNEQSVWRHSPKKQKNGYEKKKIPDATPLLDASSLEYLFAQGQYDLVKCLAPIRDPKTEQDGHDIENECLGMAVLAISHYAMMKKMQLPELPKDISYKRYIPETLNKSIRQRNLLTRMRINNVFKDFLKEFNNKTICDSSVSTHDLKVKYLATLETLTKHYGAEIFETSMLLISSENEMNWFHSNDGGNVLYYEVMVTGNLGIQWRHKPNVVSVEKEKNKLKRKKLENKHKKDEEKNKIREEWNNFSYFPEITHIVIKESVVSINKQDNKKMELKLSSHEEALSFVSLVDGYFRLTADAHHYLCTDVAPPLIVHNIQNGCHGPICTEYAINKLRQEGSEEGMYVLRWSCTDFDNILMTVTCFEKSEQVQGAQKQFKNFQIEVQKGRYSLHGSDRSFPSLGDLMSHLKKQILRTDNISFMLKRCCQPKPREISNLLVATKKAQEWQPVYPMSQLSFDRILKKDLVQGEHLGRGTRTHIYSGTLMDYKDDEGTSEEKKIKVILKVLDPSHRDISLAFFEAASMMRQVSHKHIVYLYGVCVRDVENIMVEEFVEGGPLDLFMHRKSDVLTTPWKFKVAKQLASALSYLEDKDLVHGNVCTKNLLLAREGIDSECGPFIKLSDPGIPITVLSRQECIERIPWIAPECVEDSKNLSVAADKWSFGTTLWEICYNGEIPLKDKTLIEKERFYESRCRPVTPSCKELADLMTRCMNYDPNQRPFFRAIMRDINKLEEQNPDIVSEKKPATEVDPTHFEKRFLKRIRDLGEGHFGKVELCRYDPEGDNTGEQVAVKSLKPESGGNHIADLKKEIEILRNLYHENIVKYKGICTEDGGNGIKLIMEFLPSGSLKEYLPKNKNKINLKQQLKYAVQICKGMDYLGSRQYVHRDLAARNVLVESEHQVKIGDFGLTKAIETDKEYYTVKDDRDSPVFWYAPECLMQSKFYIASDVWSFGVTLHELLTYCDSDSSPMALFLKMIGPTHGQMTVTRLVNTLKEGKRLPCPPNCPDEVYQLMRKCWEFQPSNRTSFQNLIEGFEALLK", "assay": "JAK LanthaScreen Kinase Assay (TR-FRET), JAK1", "type": "biochemical", "settings": "enzyme assay, 20.0 micromolar ATP, n=3; read-out: IC50 against JAK1", "from_the_text": "as §1, §2"}},
  "note": "pIC50: −log10 of the molar value.",
  "data": [
    {"smiles": "Cc1cc(Nc2ccc3ncn([C@@H]4CCc5ccc(F)cc54)c3n2)[nH]n1.Cl.Cl", "note": "[Example 1, 3-[(1R)-6-fluoro-2,3-dihydro-1H-inden-1-yl]-N-(3-methyl-1H-pyrazol-5-yl)-3H-imidazo[4,5-b]pyridin-5-amine dihydrochloride]", "values": [
      {"measurement": "pIC50", "setting": "phosphorylation of STAT3", "result": 7.92},
      {"measurement": "pIC50", "setting": "JAK2", "result": 8.77},
      {"measurement": "pIC50", "setting": "JAK1", "result": 8.77}
    ]}
  ]
}
